Key:
mice = assay: Calvarial bone defect healing with DCI treatment (μCT, H&E); type: in vivo, mouse; details: DCI alone
Procedure: FIGS. 8A-F show the effect of the TMD1 and TMD23 on calvarial bone healing. (8A) Cell migration, (8B) proliferation and (8C) mineralization of MG63 cells treated with the indicated dose of rTMD1. (8D) Calvarial bone healing of TM wild-type TM^wt/wt and TM domain 1 (TMD1)-deleted TM^LeD/LeD mice. (8E) μCT scanning and (8F) HE stain were used to evaluate the effect of vehicle, dichloroisocoumarin (DCI) and DCI plus rTMD23 or rTMD1 (100 μg/kg) on bone healing after a calvarial defect was created in mice. N=5 per group. Black bar=100 μm. White bar=1 mm. Dotted line indicates the section region. ***P<0.001.
Calvarial bone defect healing. Male mice were randomly assigned to designated groups. After anesthesia, a 4 mm-diameter defect on the calvaria was created and the wound was sutured. A combination of dichloroisocoumarin (DCI) (1 mM) or rTMD23 (0, 10, 100 μg/kg) and U0126 (20 μM) was subcutaneously injected once near the calvarial bone opening at week 1 after the surgery. Bone healing was monitored radiographically using μCT (Skyscan 1076, Antwerp, Belgium) and histologically at indicated time points (weeks 0 and 8) after the surgery. […] The quantification of the removed and regenerated bone volume (mm^3) performed by a 3D CT analyzer software (CTAN; Skyscan). […]

MC3T3-E1 cells = assay: Proliferation assay (WST-1); type: cell-based; details: 1% FBS
Procedure: Proliferation assay. MG63 cells were treated with various concentrations of rTMD23 for 1, 4, 7 days. The medium was replaced every 2-3 days. At the end, the amount of living cells in each well was measured with crystal violet assay. The cells in each well were washed by PBS twice right before staining. Crystal violet (0.5%, 300 μL) were added in each well for 15 min, followed by ddH2O rinse at least five times. Acetic acid (10%, 300 μL) were added to dissolute the crystal violet. Then, taking 100 μL/well into a 96 well plate to get an OD595 measurement. A proliferation assay on MC3T3-E1 cells with various concentrations of a variant of TMD23 was performed. Briefly, MC3T3-E1 cells in 96-well plates were treated with rTMD23NA at various concentrations for 1, 3, 5 days. The number of living cells in each well was measured with WST-1 reagent. The cells in each well were washed by DMEM medium twice right before staining with 100 μL of 10% WST-1 in DMEM. The absorption at A450 nm-A690 nm of each well was measured.
Human osteoblast-like cell line MG63 and osteoblast cell line MC3T3-E1 were used in the cell proliferation assay. Briefly, different concentrations of rTMD23 and rTMD23NA, which is a variant form of rTMD23, were respectively added to MG63 or MC3T3-E1 cell culture containing 1% FBS. […] The OD595 of the cell lysate in 10% acetic acid was measured to obtain the relative cell count in each well.

protein C = details: cited from earlier work

Row | Molecule | regeneration of calvarial bone defect (μCT and H&E) (mice) | cell proliferation (absorbance, WST-1) (MC3T3-E1 cells) | protein C activation activity (protein C)
1 | O=c1oc(Cl)c(Cl)c2ccccc12 [DCI, dichloroisocoumarin] | reduced regeneration of calvarial bone defect |  | 
2 | rTMD23NA: recombinant TMD23 variant with two substitutions Asn364Ala and Asn391Ala, SEQ ID NO: 3 (274aa) |  | enhance cell proliferation | little or no protein C activation activity

— US20230000955A1, “THROMBOMODULIN FUNCTIONAL DOMAINS FOR USE IN PROMOTING OSTEOBLAST FUNCTIONS AND BONE HEALING” (BLUE BLOOD BIOTECH CORP., priority 2019, published 2023)
